Assay results taken from PubChem BioAssay (NCI).
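Method: 48-hour compound exposure of cells in 96-well plates, five concentrations, linear interpolation of endpoints. The concentration for 50% growth inhibition is given as GI50. The concentration for full growth arrest is given as TGI.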

Tests used:
Test in all cases: NCI anticancer screen, dose series, 48 h
ACHN renal = tested on: ACHN renal
UACC-62 melanoma = tested on: UACC-62 melanoma
HOP-92 NSCLC = tested on: HOP-92 NSCLC
OVCAR-4 ovarian = tested on: OVCAR-4 ovarian
DU-145 prostate = tested on: DU-145 prostate
RXF 393 renal = tested on: RXF 393 renal
BT-549 breast = tested on: BT-549 breast
NCI-H460 lung = tested on: NCI-H460 lung
LOX IMVI melanoma = tested on: LOX IMVI melanoma
HS 578T breast = tested on: HS 578T breast

| Compound | GI50 (ACHN renal) | TGI (ACHN renal) | GI50 (UACC-62 melanoma) | TGI (UACC-62 melanoma) | GI50 (HOP-92 NSCLC) | TGI (HOP-92 NSCLC) | GI50 (OVCAR-4 ovarian) | TGI (OVCAR-4 ovarian) | GI50 (DU-145 prostate) | TGI (DU-145 prostate) | GI50 (RXF 393 renal) | TGI (RXF 393 renal) | GI50 (BT-549 breast) | TGI (BT-549 breast) | GI50 (NCI-H460 lung) | TGI (NCI-H460 lung) | GI50 (LOX IMVI melanoma) | TGI (LOX IMVI melanoma) | GI50 (HS 578T breast) | TGI (HS 578T breast) |
| --- | --- | --- | --- | --- | --- | --- | --- | --- | --- | --- | --- | --- | --- | --- | --- | --- | --- | --- | --- | --- |
| COc1ccc(C(=O)COC(=O)[C@H](C[Se][Se]C[C@H](NC(=O)c2ccc(Br)cc2F)C(=O)OCC(=O)c2ccc(OC)cc2)NC(=O)c2ccc(Br)cc2F)cc1 | 0.884 µM | 2.49 µM | 1.06 µM | 2.86 µM | 2.04 µM | 5.87 µM | 1.64 µM | 3.1 µM | 0.843 µM | 2.68 µM | 1.56 µM | 3.19 µM | 0.86 µM | 2.47 µM | 0.353 µM | 1.31 µM | 0.914 µM | 2.32 µM | 0.362 µM | 0.966 µM |
| COc1ccc2c(CN3CCC(C(=O)O)CC3)cc3cc4c(cc3c2c1)OCO4 | 1.41 µM | 5.45 µM | 1.59 µM | 3.03 µM | 1.62 µM | 5.34 µM | 4.15 µM | > 100 µM | 3.87 µM | > 100 µM | 1.14 µM | 3.6 µM | 4.03 µM | 17.6 µM | 2.97 µM | 16.1 µM | 1.9 µM | 9.37 µM | 3.97 µM | 25.8 µM |
| O=C(c1ccccc1)c1ccc(Oc2ccc([N+](=O)[O-])cc2[N+](=O)[O-])cc1 | 3.72 µM | 13.6 µM | 4.1 µM | 32.2 µM | 2.87 µM | 9.27 µM | 4.18 µM | 87.4 µM | 3.33 µM | 12.8 µM | 3.32 µM | 11.8 µM | 3.75 µM | 40.3 µM | 8.62 µM | 33.3 µM | 3.06 µM | 15.1 µM | 3.46 µM | 38.7 µM |
| COc1ccc2cc(-c3cc4c(oc3=O)-c3ccccc3OC4O)c(=O)oc2c1 (centres undefined) | 16.1 µM | 30.1 µM | 16.2 µM | 30.4 µM | 10.2 µM | 24.7 µM | 12.3 µM | 28.9 µM | 14.3 µM | 27.4 µM | 18.7 µM | 36.4 µM | 14.7 µM | 28.2 µM | 16.7 µM | 34.7 µM | 15.9 µM | 31.2 µM | 20.8 µM | 45.1 µM |
| Nc1nc(OCc2cc(Br)cs2)c2[nH]cnc2n1 | 13.7 µM | 52 µM | 16.3 µM | 59.7 µM | 3.11 µM | 37 µM | 24.9 µM | > 100 µM | 33 µM | > 100 µM | 14 µM | 55.5 µM | 15.7 µM | 63.9 µM | 25 µM | > 100 µM | 25.3 µM | 98.1 µM | 25.6 µM | 83.7 µM |
| O=C(/C(=C\c1ccc([N+](=O)[O-])cc1)S(=O)Cc1ccc(F)cc1)c1ccc(F)cc1 (centres undefined) | 2.33 µM | 6.51 µM | 1.71 µM | 3.25 µM | 1.86 µM | 3.98 µM | 1.84 µM | 3.91 µM | 1.66 µM | 3.06 µM | 1.78 µM | 3.38 µM | 1.96 µM | 3.88 µM | 2.13 µM | 4.7 µM | 1.54 µM | 3.05 µM | 3.3 µM | 75 µM |
| O=C1C(=O)c2c(nc3ccc(Br)cn23)-c2ccccc21 | 0.452 µM | 1.55 µM | 0.365 µM | 1.27 µM | 1.22 µM | 2.7 µM | 0.191 µM | 0.398 µM | 0.483 µM | 1.03 µM | 1.55 µM | 2.97 µM | 1.37 µM | 2.67 µM | 1.09 µM | 2.69 µM | 0.242 µM | 0.689 µM | 0.438 µM | 2.23 µM |
| O=[N+]([O-])c1ccc(Sc2ncnc3nc[nH]c23)c2nonc12 | 4.04 µM | 16.1 µM | 4.91 µM | 17.3 µM | 2 µM | 22.2 µM | 0.811 µM | 16.9 µM | 5.16 µM | > 100 µM |  |  | 10.3 µM | 27.4 µM | 9.73 µM | 35.2 µM | 1.04 µM | 16 µM | 15.4 µM | 77 µM |
| CCOC(=O)c1c(C)n2c(=O)cc(C)c3c(O)c(O)cc1c32 | 1.82 µM | 31.2 µM | 8.9 µM | 29.3 µM | 2.49 µM | 31.6 µM | 4.53 µM | > 100 µM | 29.1 µM | > 100 µM |  |  | 15.9 µM | 79.7 µM | 12.9 µM | > 100 µM | 3.98 µM | 30.5 µM | 25.6 µM | > 100 µM |
| Nc1nc2c(s1)CCc1c-2c(Br)n(Cc2ccccc2)c1Br | 2.22 µM | 5.23 µM | 10.4 µM | 24.7 µM | 4.43 µM | 23.9 µM |  |  | 16.1 µM | 37.3 µM | 2.23 µM | 6.38 µM | 15.1 µM | 30.2 µM | 21.3 µM | 52.9 µM | 3.98 µM | 19.7 µM | 25.7 µM | 93.8 µM |
